Assays:
[1] = target: T1, hTLR7 (Homo sapiens, UniProt Q9NYK1); assay: TLR7 reporter assay in HEK-Blue cells (SEAP, Quanti-Blue); assay type: cell-based; conditions: 24 hours incubation, SEAP absorbance at 620 nm
T1 construct: host or cells: HEK-Blue hTLR7 (HEK293-derived SEAP reporter cells)
T1 sequence (Q9NYK1 27-1049): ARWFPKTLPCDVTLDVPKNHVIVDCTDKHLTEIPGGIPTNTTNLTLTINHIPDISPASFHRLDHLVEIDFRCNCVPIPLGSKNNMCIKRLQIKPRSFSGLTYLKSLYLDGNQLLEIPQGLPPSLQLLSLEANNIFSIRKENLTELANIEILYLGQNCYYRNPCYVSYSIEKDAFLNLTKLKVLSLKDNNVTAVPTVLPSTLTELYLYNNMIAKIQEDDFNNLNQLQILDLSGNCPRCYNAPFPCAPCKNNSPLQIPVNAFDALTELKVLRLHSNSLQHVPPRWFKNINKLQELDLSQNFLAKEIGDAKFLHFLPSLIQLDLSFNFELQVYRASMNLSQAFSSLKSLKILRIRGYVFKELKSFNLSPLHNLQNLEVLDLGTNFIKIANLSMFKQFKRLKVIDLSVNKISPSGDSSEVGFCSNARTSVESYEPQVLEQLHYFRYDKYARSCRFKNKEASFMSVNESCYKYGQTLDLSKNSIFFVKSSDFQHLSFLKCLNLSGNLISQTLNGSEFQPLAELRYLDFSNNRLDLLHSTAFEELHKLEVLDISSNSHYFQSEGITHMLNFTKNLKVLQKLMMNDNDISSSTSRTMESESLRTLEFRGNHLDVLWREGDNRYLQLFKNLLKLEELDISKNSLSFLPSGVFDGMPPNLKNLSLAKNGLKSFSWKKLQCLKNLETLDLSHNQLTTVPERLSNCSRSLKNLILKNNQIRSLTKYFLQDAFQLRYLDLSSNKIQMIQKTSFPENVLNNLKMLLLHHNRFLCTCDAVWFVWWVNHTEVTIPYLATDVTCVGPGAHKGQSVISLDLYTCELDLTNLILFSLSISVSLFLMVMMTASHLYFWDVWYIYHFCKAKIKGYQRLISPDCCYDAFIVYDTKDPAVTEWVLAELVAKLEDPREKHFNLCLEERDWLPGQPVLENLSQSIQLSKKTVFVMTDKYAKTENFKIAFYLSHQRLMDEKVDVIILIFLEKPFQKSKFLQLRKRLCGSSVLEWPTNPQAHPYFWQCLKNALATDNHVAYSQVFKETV
Procedure: (§1) HEK-Blue™ TLR7 and TLR8 cell lines were obtained from InvivoGen (San Diego, CA, USA). HEK-Blue cells were cultured in DMEM medium hi glucose (Gibco-10569010) supplemented with 10% HI-FBS (Aus origin) (Gibco-10100-147), 1% penicillin/streptomycin (Gibco-15140-122-100 ml) as per manufacturer's recommendation. In addition, specific antibiotic mixtures were added to the culture. 100 μg/ml Zeocin (11006-33-0), 10 μg/ml Blasticidin (ant-bl-05), 50 μg/ml Normocin (ANT-NR-1-500 MG) for HEK-Blue™ hTLR7 and 100 μg/ml Zeocin, 30 μg/ml Blasticidin, 50 μg/ml Normocin for HEK-Blue™ hTLR8 cells (all from InvivoGen).
(§2) All the compounds were prepared in 100% DMSO (Sigma-D2650). The compounds were serially diluted in 100% DMSO (3 fold) up to 10 point dose response curve starting with 30 μM; final concentration of DMSO in the plate was 0.3%. Resiquimod and TL8-506 (InvivoGen-tlrl-t18506) were used as controls. 0.3% DMSO and 10 μM Resiquimod were used as min and max respectively, and % activation was calculated using following formula:
(§3) % Activation: {100−(max absorbance−absorbance)/(max absorbance−min absorbance)}×100.
(§4) For stimulation with TLR7/8 agonists, cells were resuspended in complete media and 40 μl of cell suspension (10,000 cells/well) was seeded on day 1 in 384 well assay plate (Thermo Scientific™ Nunc-164688) having pre-dispensed compounds with Echo Liquid handler. The plate was spun at 100 g for 1 min to settle down the cells and incubated at 37° C. with 5% CO2 for 24 hours. For measuring production of SEAP after 24 hrs of incubation, 10 μl of Quanti-Blue™ solution (InvivoGen rep-qbs2) prepared according to manufacturer's instructions was added in dark to the assay plate and incubated at 37° C. with 5% CO2 for 30 min. Post incubation, the absorbance was measured at 620 nm in Tecan spark (Spark control Magellan). EC50 were determined using Graph Pad Prism Statistical software (Version 7.05), with individual data points represent the absorbance values of duplicates.

[2] = target: T2, hTLR8 (Homo sapiens, UniProt Q9NR97); assay: TLR8 reporter assay in HEK-Blue cells (SEAP, Quanti-Blue); assay type: cell-based; conditions: 24 hours incubation, SEAP absorbance at 620 nm
T2 construct: host or cells: HEK-Blue hTLR8 (HEK293-derived SEAP reporter cells)
T2 sequence (Q9NR97 27-1041): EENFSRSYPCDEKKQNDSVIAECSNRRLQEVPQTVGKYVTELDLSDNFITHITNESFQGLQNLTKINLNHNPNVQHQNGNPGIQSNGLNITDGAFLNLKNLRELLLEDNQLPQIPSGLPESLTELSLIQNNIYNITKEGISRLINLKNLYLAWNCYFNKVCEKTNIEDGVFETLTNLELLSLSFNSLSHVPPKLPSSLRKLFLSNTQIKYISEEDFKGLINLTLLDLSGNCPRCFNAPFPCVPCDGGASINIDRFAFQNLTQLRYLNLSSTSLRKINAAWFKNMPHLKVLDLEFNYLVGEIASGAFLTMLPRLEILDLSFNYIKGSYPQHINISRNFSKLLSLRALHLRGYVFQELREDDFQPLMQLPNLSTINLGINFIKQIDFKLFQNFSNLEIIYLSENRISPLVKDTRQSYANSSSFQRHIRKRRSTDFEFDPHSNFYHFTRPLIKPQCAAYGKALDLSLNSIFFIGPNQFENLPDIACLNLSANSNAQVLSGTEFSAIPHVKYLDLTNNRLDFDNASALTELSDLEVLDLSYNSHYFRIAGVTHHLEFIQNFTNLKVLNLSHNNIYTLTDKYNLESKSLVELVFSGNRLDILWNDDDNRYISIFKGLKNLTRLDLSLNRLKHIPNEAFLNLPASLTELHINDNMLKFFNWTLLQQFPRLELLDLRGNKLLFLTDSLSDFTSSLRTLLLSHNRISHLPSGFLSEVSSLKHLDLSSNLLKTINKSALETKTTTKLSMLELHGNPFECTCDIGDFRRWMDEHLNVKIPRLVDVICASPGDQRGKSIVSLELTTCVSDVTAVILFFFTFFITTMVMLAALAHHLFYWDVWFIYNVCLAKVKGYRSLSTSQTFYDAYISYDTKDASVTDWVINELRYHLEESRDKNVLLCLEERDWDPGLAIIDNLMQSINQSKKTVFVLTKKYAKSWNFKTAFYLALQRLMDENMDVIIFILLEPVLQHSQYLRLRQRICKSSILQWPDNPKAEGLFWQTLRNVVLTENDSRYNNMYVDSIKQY
Procedure: as §1, §2, §3, §4

Question: What does the source list for `CCOCc1nc2c(N)nc3ccccc3c2n1CC(C)(C)OCCN1CCN(C)CC1` [Example 1]?
Answer: EC50 [1]: < 10 nM; EC50 [2]: 1000 to 10000 nM

Question: With `CCOCc1nc2c(N)nc3ccccc3c2n1CC(C)(C)OCCCCCCN1CCN(C)CC1` [Example 5] as the compound, how does the EC50 [1] read?
Answer: Its EC50 is under 10 nM.

Question: What about the EC50 [2] of the same compound?
Answer: The EC50 was 100 to 1000 nM.

Question: For `CCOCc1nc2c(N)nc3ccccc3c2n1CC(C)(C)OCCCCO` [Example 6], which EC50 [1] is on record?
Answer: Its EC50 is 10 to 100 nM.

Question: And the EC50 [2]?
Answer: Its EC50 is 1000 to 10000 nM.

Question: With `CCOCc1nc2c(N)nc3ccccc3c2n1CC(C)(C)OCCCCN1CCN(CCO)CC1` [Example 12] as the compound, how does the EC50 [1] read?
Answer: Its EC50 is 10 to 100 nM.

Question: And the EC50 [2]?
Answer: Its EC50 is 1000 to 10000 nM.

Question: What does the source list for `CCOCc1nc2c(N)nc3ccccc3c2n1CC(C)(C)OCCCC(=O)N1CCN(C)CC1` [Example 15]?
Answer: EC50 [1]: 10 to 100 nM; EC50 [2]: 1000 to 10000 nM

Question: For `CCOCc1nc2c(N)nc3ccccc3c2n1CC(C)(C)OCCNC(=O)CN1CCN(C)CC1` [Example 16], which EC50 [1] is on record?
Answer: Its EC50 is 100 to 1000 nM.

Question: What about the EC50 [2] of the same compound?
Answer: Its EC50 is 1000 to 10000 nM.

Question: With `CCOCc1nc2c(N)nc3ccccc3c2n1CC(C)(C)OC(=O)CN1CCN(C)CC1` [Example 17] as the compound, how does the EC50 [1] read?
Answer: Its EC50 is 100 to 1000 nM.

Question: And the EC50 [2]?
Answer: Its EC50 is 100 to 1000 nM.

Question: What does the source list for `CCOCc1nc2c(N)nc3ccccc3c2n1CC(C)(C)OCCNC(=O)CO` [Example 20]?
Answer: EC50 [1]: > 10000 nM; EC50 [2]: > 10000 nM

Question: For `CCOCc1nc2c(N)nc3ccccc3c2n1CC(C)(C)OCCNC(=O)C(C)(C)O` [Example 21], which EC50 [1] is on record?
Answer: Its EC50 is 100 to 1000 nM.

Question: What about the EC50 [2] of the same compound?
Answer: The EC50 was over 10000 nM.

Question: `CCOCc1nc2c(N)nc3ccccc3c2n1CC(C)(C)OCCNC(=O)CC(=O)OC` [Example 22] was tested. Which EC50 [1] did it give?
Answer: The EC50 was 100 to 1000 nM.

Question: And the EC50 [2]?
Answer: Its EC50 is over 10000 nM.

Question: How did the EC50 [1] turn out when `CCOCc1nc2c(N)nc3ccccc3c2n1CC(C)(C)OCCNC(=O)CSC` [Example 23] was run?
Answer: The EC50 was 100 to 1000 nM.

Question: What about the EC50 [2] of the same compound?
Answer: Its EC50 is over 10000 nM.

Question: `CCOCc1nc2c(N)nc3ccccc3c2n1CC(C)(C)OCCNC(=O)CS(C)(=O)=O` [Example 24] was tested. Which EC50 [1] did it give?
Answer: Its EC50 is 100 to 1000 nM.

Question: And the EC50 [2]?
Answer: The EC50 was 100 to 1000 nM.

Question: For `CCOCc1nc2c(N)nc3ccccc3c2n1CC(C)(C)OCCNC(=O)CS(=O)(=O)O` [Example 25], which EC50 [1] is on record?
Answer: The EC50 was 1000 to 10000 nM.

Question: And the EC50 [2]?
Answer: The EC50 was over 10000 nM.

Question: `CCOCc1nc2c(N)nc3ccccc3c2n1CC(C)(C)OCCCCN1CCN(CCSC)CC1` [Example 26] was tested. Which EC50 [1] did it give?
Answer: The EC50 was 100 to 1000 nM.

Question: What about the EC50 [2] of the same compound?
Answer: Its EC50 is 1000 to 10000 nM.
